Source: ChEMBL document CHEMBL1201862, “PubChem BioAssay data set” (2004)
The source made the active and inactive calls.

How the values were obtained:
[1] = THP-1 cell cytotoxicity, dose response, cytotoxicity control for Vif-APOBEC3G degradation inhibitor project, THP-1 cells (AID 1117359); type: functional; settings: Human immunodeficiency virus 1, THP-1
[2] = biological target: T1, Rac GTPase-activating protein 1 (Homo sapiens, UniProt Q9H0H5); assay: MgcRacGAP GTPase-activating activity inhibitors, confirmation, biochemical, ADP Hunter fluorescence, primary and confirmatory (AID 624330); type: functional
T1 sequence (Q9H0H5 whole entry): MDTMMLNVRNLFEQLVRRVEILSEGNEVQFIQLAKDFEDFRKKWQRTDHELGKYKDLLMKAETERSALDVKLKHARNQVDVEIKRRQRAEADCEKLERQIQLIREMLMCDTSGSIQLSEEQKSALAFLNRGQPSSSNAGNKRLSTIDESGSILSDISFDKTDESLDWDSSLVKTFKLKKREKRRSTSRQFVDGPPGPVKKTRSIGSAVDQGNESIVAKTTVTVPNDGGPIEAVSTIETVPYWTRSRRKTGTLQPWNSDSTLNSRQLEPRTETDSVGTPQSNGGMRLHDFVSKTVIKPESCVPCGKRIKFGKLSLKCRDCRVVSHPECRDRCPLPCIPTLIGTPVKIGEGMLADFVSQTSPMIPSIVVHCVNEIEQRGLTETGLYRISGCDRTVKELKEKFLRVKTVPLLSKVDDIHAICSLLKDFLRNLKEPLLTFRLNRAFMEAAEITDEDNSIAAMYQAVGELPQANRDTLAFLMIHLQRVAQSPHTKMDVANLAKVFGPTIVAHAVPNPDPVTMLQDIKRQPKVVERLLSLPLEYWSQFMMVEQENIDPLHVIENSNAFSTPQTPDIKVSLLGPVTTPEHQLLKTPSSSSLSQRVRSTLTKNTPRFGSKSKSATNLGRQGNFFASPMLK

[3] = Luminescence Cell-Based Dose Confirmation to Identify Activators of 5'UTR Stem-Loop Driven Alpha-Synuclein mRNA Translation in H4 Neuroglioblastoma Cells. [Related pubchem assays: 1829 (Project Summary), 1814 (Primary HTS)]; type: functional
[4] = Luminescence Cell-Based Dose Response to Identify Activators of Luciferase Translation or Activity in H4-C Neuroglioblastoma Cells. [Related pubchem assays: 1829 (Project Summary), 1814 (Primary HTS)]; type: functional
[5] = Luminescence Cell-Based Dose Confirmation HTS to Identify Activators of 5'UTR Stem-Loop Driven Alpha-Synuclein mRNA Translation in H4 Neuroglioblastoma Cells. [Related pubchem assays: 1829 (Project Summary), 1814 (Primary HTS)]; type: functional
[6] = Luminescence Cell-Based Dose Response HTS to Identify Activators of Luciferase Translation or Activity in H4 […] Cells. [Related pubchem assays: 1829 (Project Summary), 1814 (Primary HTS)]; type: functional
[7] = Luminescence Cell-Based Dose Response to Identify Activators of 5'UTR Stem-Loop Driven Prion Protein mRNA Translation in H4-C Neuroglioblastoma Cells. [Related pubchem assays: 1829 (Project Summary), 1814 (Primary HTS)]; type: functional
H4 = assay: Luminescence Cell-Based Dose Response HTS to Identify Activators of 5'UTR Stem-Loop Driven Prion Protein mRNA Translation in H4 Neuroglioblastoma Cells. [Related pubchem assays: 1829 (Project Summary), 1814 (Primary HTS)]; type: functional; settings: Homo sapiens
[8] = biological target: T2, Zinc finger protein mex-5 (Caenorhabditis elegans, UniProt Q9XUB2); assay: MEX-5/TCR-2 RNA interaction inhibitors, dose response, biochemical, C. elegans, fluorescence polarization (AID 1960)
T2 sequence (Q9XUB2 whole entry): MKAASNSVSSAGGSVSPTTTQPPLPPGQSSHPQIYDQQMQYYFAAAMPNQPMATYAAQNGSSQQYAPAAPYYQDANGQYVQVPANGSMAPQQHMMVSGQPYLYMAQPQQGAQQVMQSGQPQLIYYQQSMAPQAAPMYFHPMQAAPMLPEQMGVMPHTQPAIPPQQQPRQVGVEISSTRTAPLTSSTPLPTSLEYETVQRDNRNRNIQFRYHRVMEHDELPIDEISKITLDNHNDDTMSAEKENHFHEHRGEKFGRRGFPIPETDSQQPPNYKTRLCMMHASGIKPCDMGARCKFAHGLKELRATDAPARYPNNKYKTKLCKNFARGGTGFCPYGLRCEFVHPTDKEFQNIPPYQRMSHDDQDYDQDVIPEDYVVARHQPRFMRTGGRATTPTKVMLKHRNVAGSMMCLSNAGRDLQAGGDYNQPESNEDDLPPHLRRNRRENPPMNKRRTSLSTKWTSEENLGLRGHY

[9] = biological target: T3, Histone-lysine N-methyltransferase NSD2 (Homo sapiens, UniProt O96028); type: biochemical
T3 sequence (O96028 whole entry): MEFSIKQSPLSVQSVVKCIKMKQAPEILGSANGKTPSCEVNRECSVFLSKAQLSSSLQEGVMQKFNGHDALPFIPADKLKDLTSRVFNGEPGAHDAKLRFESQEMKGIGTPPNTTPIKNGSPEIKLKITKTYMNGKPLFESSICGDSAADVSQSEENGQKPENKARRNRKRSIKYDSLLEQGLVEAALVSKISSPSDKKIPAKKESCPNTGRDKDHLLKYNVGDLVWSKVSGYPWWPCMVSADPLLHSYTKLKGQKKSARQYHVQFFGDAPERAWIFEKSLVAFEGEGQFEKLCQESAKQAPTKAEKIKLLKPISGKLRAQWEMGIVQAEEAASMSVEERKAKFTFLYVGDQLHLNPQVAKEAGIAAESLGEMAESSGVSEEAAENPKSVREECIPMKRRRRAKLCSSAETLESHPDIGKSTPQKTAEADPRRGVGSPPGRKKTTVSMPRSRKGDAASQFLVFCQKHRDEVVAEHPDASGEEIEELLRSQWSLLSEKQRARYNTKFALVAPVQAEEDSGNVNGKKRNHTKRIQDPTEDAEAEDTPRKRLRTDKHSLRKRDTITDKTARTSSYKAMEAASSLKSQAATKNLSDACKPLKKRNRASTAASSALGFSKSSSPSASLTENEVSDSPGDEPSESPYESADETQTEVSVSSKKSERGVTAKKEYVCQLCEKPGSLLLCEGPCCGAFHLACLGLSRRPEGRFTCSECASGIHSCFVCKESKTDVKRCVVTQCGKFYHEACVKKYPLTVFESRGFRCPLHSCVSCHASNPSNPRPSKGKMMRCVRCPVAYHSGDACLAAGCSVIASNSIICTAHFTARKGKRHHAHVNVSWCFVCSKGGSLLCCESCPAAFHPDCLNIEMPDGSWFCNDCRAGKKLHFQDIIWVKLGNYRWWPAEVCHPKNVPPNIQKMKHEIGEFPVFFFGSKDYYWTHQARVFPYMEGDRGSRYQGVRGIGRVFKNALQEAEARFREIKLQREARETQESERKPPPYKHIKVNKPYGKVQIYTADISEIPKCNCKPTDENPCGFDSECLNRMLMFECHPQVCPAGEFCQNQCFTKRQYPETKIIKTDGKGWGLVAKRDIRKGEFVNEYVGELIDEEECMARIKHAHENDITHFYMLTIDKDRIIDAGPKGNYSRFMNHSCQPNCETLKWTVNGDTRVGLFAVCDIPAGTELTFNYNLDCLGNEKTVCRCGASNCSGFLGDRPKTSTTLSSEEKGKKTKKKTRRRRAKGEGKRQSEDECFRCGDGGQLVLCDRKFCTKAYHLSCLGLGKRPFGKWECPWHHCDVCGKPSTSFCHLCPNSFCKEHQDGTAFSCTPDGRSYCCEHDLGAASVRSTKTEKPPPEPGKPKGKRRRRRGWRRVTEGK

[10] = biological target: T4, RNA-binding protein pos-1 (Caenorhabditis elegans, UniProt G5EF15); assay: inhibitors of POS-1/mex-3 RNA binding, dose response, biochemical, fluorescence polarization (AID 1964);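 note: purified POS-1 fused to maltose binding protein made in E. coli; potency of compounds blocking POS-1 binding to fluorescent RNA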
T4 sequence (G5EF15 whole entry): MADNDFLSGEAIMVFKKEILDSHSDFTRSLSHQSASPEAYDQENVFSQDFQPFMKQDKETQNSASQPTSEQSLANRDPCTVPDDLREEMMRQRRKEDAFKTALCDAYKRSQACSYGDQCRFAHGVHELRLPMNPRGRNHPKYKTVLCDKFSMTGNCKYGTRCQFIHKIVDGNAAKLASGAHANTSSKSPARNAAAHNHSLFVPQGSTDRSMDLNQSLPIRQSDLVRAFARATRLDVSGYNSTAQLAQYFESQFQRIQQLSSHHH

Caspase-6 = biological target: T5, Caspase-6 (Homo sapiens, UniProt P55212); assay: human caspase-6 inhibitors, dose response, biochemical, VEID-R110 fluorescence, cherry-pick (AID 720632)
T5 sequence (P55212 whole entry): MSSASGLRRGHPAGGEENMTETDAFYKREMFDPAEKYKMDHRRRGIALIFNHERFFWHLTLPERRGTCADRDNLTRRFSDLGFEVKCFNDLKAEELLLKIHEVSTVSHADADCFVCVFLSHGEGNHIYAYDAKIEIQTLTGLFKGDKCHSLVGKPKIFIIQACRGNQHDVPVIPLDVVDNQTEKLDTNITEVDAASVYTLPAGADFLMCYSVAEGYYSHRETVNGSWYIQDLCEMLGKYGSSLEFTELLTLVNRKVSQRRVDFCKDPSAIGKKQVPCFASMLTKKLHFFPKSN

[11] = biological target: T6, Carboxy-terminal domain RNA polymerase II polypeptide A small phosphatase 1 (Homo sapiens, UniProt Q9GZU7); assay: inhibitors of CTDSP1, concentration-response testing, biochemical assay, absorbance-based, actives from ultra-high-throughput screening (AID 540297); type: functional
T6 sequence (Q9GZU7 whole entry): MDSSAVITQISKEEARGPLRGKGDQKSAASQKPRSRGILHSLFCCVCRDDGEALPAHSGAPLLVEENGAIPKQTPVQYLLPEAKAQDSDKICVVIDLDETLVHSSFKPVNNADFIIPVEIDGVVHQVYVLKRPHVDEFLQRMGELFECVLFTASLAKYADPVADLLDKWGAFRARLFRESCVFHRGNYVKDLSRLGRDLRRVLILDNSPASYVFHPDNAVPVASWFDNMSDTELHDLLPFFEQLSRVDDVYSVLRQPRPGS

[12] = P. falciparum ATP4 D1247Y mutant growth inhibitors, dose response, NITD609-resistant line, SYBR Green, dry powder (AID 1159571); type: functional, cell-based;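 note: parasites synchronized at ring stage by sorbitol before testing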
[13] = HepG2 cell cytotoxicity, dose response, cytotoxicity control, plate reader, dry powder samples (AID 1159569); type: functional, cell-based;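 note: inhibitor potency with signal falling toward the positive control level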
[14] = P. falciparum 3D7-ScDHODH growth inhibitors, dose response, SYBR Green, dry powder samples (AID 1159570); type: functional, cell-based;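 note: parasite growth measured after 72 hours of compound exposure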
[15] = P. falciparum Dd2 growth inhibitors, dose response, SYBR Green, cherry-picked samples (AID 1159567); type: functional, cell-based
[16] = P. falciparum Dd2 growth inhibitors, dose response, SYBR Green, dry powder samples (AID 1159566); type: functional, cell-based;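 note: potency for growth inhibition with lower SYBR green DNA signal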
[17] = HepG2 cell cytotoxicity, dose response, cytotoxicity control, cherry-picked samples (AID 1159577); type: functional, cell-based

Row | Compound | AC50 [12] | AC50 [13] | AC50 [14] | AC50 [15] | AC50 [16] | AC50 [17] | also measured
1 | COc1cc(Br)c(CNc2cc(C)ccc2C)cc1OC |  |  |  |  |  |  | CC50 [1]: 12600 nM (active); IC50 [2]: 97400 nM (active)
2 | CN(C)/C=C1\C(=O)N(c2ccc(Cl)cc2)CS1(=O)=O |  |  |  |  |  |  | EC50 [3]: 697 nM (active); EC50 [4]: 648 nM (active); EC50 [5]: < 100 nM (active); EC50 [6]: 63600 nM (active); EC50 [7]: 1520 nM (active); EC50 (H4): > 120000 nM (not active)
3 | Nc1c(C(=O)N2CCCCC2)sc2nc3c(cc12)CCCC3 |  |  |  |  |  |  | EC50 [3]: 322 nM (active); EC50 [4]: 923 nM (active); EC50 [6]: < 100 nM (active); EC50 [7]: 682 nM (active)
4 | Cc1cc(C=O)c(C)n1-c1cc(C(=O)O)cc(C(=O)O)c1 |  |  |  |  |  |  | EC50 [8]: > 300000 nM (not active); AC50 [9]: > 20000 nM (inactive); EC50 [10]: > 300000 nM (not active); AC50 (Caspase-6): 1710 nM (active); IC50 [11]: 3160 nM (active)
5 | COc1ccc(OC)c(NC(=O)CSc2nc3ccccc3c(=O)n2CC2CCCO2)c1 (centres undefined) |  |  |  |  |  |  | CC50 [1]: > 40000 nM (active)
6 | NCCC(=O)N1c2ccccc2Sc2ccccc21 |  |  |  |  |  |  | CC50 [1]: > 40000 nM (active)
7 | CCCN1[C@H](CO)[C@H](c2ccc(C3=CCCC3)cc2)[C@H]1CN(C(C)=O)C1CCCC1 | 1600 nM (active) | 72100 nM (active) | 3260 nM (active) | 1920 nM (active) | 1750 nM (active) |  | 
8 | OC[C@@H]1Nc2ccc(C#Cc3cccc(F)c3)cc2[C@H]2NCC[C@@H]12 | 2340 nM (active) | 17500 nM (active) | 1150 nM (active) | 3010 nM (active) | 804 nM (active) | 25600 nM (active) | 
9 | N#C[C@@H]1[C@@H](c2ccccc2C2=CCCC2)[C@@H](CO)N1C(=O)NC1CCCC1 | 744 nM (active) | 56800 nM (active) | 10900 nM (active) | 791 nM (active) | 592 nM (active) |  | 
10 | COc1ccc(C#Cc2cccc(-c3nc(C(=O)Nc4ccc(-c5ccccc5)cc4)cc4c3[C@@H](CCO)N([S+]([O-])C(C)(C)C)C4)c2)cc1OC (some centres undefined) | 621 nM (active) | 24100 nM (active) | 1120 nM (active) | 995 nM (active) | 486 nM (active) | > 39000 nM (inactive) | 
11 | C[C@H](CO)N1C[C@H](C)[C@@H](CN(C)C(=O)CCCN(C)C)OCc2cnnn2CCCC1=O |  |  |  |  |  | > 42000 nM (inactive) | 
12 | COc1cccc(CN2C[C@@H]3N[C@H](C2)[C@@H]3c2ccc(-c3ccc(C#N)cc3)cc2)c1 |  |  |  | 3090 nM (active) |  | 9630 nM (active) | 
